Experimental data as given in patent US11109593B2, “Isoxazolin-5-one derivative and herbicide containing same as active ingredient” (HOKKO CHEMICAL INDUSTRY CO., LTD., priority 2017, dated 2021).

What was measured:
Type in all cases: in vivo
Echinochloa crus-galli [1] = assay: Test Example 1: herbicidal effect test by treatment of rice paddy soil (immediately after seeding); details: 120 g/10a active ingredient, dry weight vs untreated area, 14 days after treatment
Procedure, shortened: (§1)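 Values are herbicidal rates (%) derived from average plant dry weight in treated versus untreated pots 14 days after treatment, run in duplicate. Treatment was a water-diluted emulsion dropped into flooded paddy soil right after sowing, at 120 g active ingredient per 10 ares.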

Scirpus juncoides [2] = assay: as above; details: 120 g/10a active ingredient, dry weight vs untreated area, 14 days after treatment
Procedure, shortened: as §1

[3] = test system: broad leaf weeds (Lindernia pyxidaria and Monochoria vaginalis); assay: as above; details: 120 g/10a active ingredient, dry weight vs untreated area, 14 days after treatment
Procedure, shortened: as §1

Echinochloa crus-galli [4] = assay: Test Example 2: herbicidal effect test by treatment during growing period in paddy rice cultivation (seven days after seeding); details: 120 g/10a active ingredient, assessed 14 days after treatment, dry weight vs untreated area
Procedure, shortened: (§2)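 Greenhouse flooded-pot test, seeds sown in puddled paddy soil; emulsion applied into water 7 d after seeding, 120 g a.i./10 a. Dry-weight-based herbicidal rate at 14 d, n=2.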

Scirpus juncoides [5] = assay: as above; details: 120 g/10a active ingredient, assessed 14 days after treatment, dry weight vs untreated area
Procedure, shortened: as §2

[6] = test system: broad leaf weeds (Lindernia pyxidaria and Monochoria vaginalis); assay: as above; details: 120 g/10a active ingredient, assessed 14 days after treatment, dry weight vs untreated area
Procedure, shortened: as §2

Amaranthus viridis [7] = assay: Test Example 3: herbicidal effect test by treatment of dry field farming soil (one day after seeding); details: 120 g/10a active ingredient, evaluated 14 days after treatment
Procedure, shortened: (§3)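 Compound emulsions are sprayed on the soil surface one day after sowing (120 g a.i. per 10 ares) before weeds emerge. Effect is expressed as percent dry-weight reduction versus untreated controls 14 days post-treatment.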

Chenopodium album [8] = assay: as above; details: 120 g/10a active ingredient, evaluated 14 days after treatment
Procedure, shortened: as §3

Echinochloa crus-galli [9] = assay: as above; details: 120 g/10a active ingredient, evaluated 14 days after treatment
Procedure, shortened: as §3

southern crabgrass [10] = assay: as above; details: 120 g/10a active ingredient, evaluated 14 days after treatment
Procedure, shortened: as §3

Amaranthus viridis [11] = assay: Test Example 4: herbicidal effect test by treatment of leave and stem in dry field farming (seven days after seeding); details: 120 g/10a active ingredient; emulsion sprayed seven days after seeding; evaluated 14 days after treatment
Procedure, shortened: (§4)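 Weeds were seeded at 20 seeds per species into the top 1 cm of alluvial upland soil in pots, then sprayed 7 days after seeding with water-diluted emulsifiable concentrate at 100 L/10 a, giving 120 g active ingredient/10 a. Duplicate pots; herbicidal rate (%) was 14 days post-treatment, from dry weight versus untreated.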

Chenopodium album [12] = assay: as above; details: 120 g/10a active ingredient; emulsion sprayed seven days after seeding; evaluated 14 days after treatment
Procedure, shortened: as §4

Echinochloa crus-galli [13] = assay: as above; details: 120 g/10a active ingredient; emulsion sprayed seven days after seeding; evaluated 14 days after treatment
Procedure, shortened: as §4

southern crabgrass [14] = assay: as above; details: 120 g/10a active ingredient; emulsion sprayed seven days after seeding; evaluated 14 days after treatment
Procedure, shortened: as §4

| SMILES | Herbicidal rate (%) Echinochloa crus-galli (Echinochloa crus-galli [1]) [%] | Herbicidal rate (%) Scirpus juncoides (Scirpus juncoides [2]) [%] | Herbicidal rate (%) Lindernia pyxidaria [3] [%] | Herbicidal rate (%) Monochoria vaginalis [3] [%] | Herbicidal rate (%) Echinochloa crus-galli (Echinochloa crus-galli [4]) [%] | Herbicidal rate (%) Scirpus juncoides (Scirpus juncoides [5]) [%] | Herbicidal rate (%) Lindernia pyxidaria [6] [%] | Herbicidal rate (%) Monochoria vaginalis [6] [%] | herbicidal rate, Amaranthus viridis (Amaranthus viridis [7]) [%] | herbicidal rate, Chenopodium album (Chenopodium album [8]) [%] | herbicidal rate, Echinochloa crus-galli (Echinochloa crus-galli [9]) [%] | herbicidal rate, southern crabgrass (southern crabgrass [10]) [%] | herbicidal effect (herbicidal rate), Amaranthus viridis (Amaranthus viridis [11]) [%] | herbicidal effect (herbicidal rate), Chenopodium album (Chenopodium album [12]) [%] | herbicidal effect (herbicidal rate), Echinochloa crus-galli (Echinochloa crus-galli [13]) [%] | herbicidal effect (herbicidal rate), southern crabgrass (southern crabgrass [14]) [%] |
| --- | --- | --- | --- | --- | --- | --- | --- | --- | --- | --- | --- | --- | --- | --- | --- | --- |
| CCCC(c1ccccc1)n1oc(=O)c(Cc2ccccc2N(S(=O)(=O)C(F)(F)F)S(=O)(=O)C(F)(F)F)c1C (stereo not shown) [Compound 1-1039] | 90 | 90 | 90 | 80 | 100 | 80 | 70 | 80 | 0 | 0 | 90 | 90 | 40 | 40 | 90 | 90 |
| CCC(C)n1oc(=O)c(Cc2ccccc2N(C(C)=O)S(=O)(=O)C(F)(F)F)c1C (stereo not shown) [Compound 1-294] | 90 | 90 | 90 | 90 | 90 | 90 | 90 | 90 | 90 | 90 | 90 | 90 | 40 | 40 | 90 | 90 |
| Cc1c(Cc2cc(F)ccc2NS(=O)(=O)C(F)(F)F)c(=O)on1CC(C)C [Compound 1-28] | 100 | 90 | 90 | 100 | 100 | 90 | 80 | 100 | 100 | 100 | 90 | 80 | 80 | 40 | 90 | 50 |
| COCC(C)n1oc(=O)c(Cc2ccccc2N(C(=O)C2CCCCC2)S(=O)(=O)C(F)(F)F)c1C (stereo not shown) [Compound 1-434] | 90 | 90 | 90 | 90 | 90 | 90 | 90 | 90 | 90 | 90 | 90 | 90 | 40 | 40 | 90 | 90 |
| C=CCOC(=O)N(c1ccccc1Cc1c(C)n(C(C)CC)oc1=O)S(=O)(=O)C(F)(F)F (stereo not shown) [Compound 1-706] | 90 | 90 | 90 | 90 | 90 | 90 | 90 | 90 | 90 | 90 | 90 | 90 | 40 | 40 | 90 | 90 |
| CCC(C)n1oc(=O)c(Cc2ccccc2N(C(=O)OCC2CCCO2)S(=O)(=O)C(F)(F)F)c1C (stereo not shown) [Compound 1-829] | 90 | 90 | 90 | 90 | 90 | 90 | 90 | 90 | 90 | 90 | 90 | 90 | 40 | 40 | 90 | 90 |
| CCCC(C)n1oc(=O)c(Cc2ccccc2N(C(=O)C2CC2)S(=O)(=O)C(F)(F)F)c1C (stereo not shown) [Compound 1-408] | 100 | 90 | 80 | 80 | 90 | 90 | 70 | 60 | 80 | 60 | 100 | 100 | 40 | 70 | 90 | 90 |
| CCN(CC)C(=O)N(c1ccccc1Cc1c(C)n(C(C)c2ccccc2)oc1=O)S(=O)(=O)C(F)(F)F (stereo not shown) [Compound 1-886] | 90 | 90 | 90 | 90 | 90 | 90 | 90 | 90 | 90 | 90 | 90 | 90 | 40 | 40 | 90 | 90 |
| CCCCC(C)n1oc(=O)c(Cc2ccccc2NS(=O)(=O)C(F)(F)F)c1C (stereo not shown) [Compound 1-120] | 100 | 100 | 100 | 100 | 90 | 90 | 80 | 80 | 50 | 50 | 90 | 90 | 60 | 50 | 90 | 80 |
| Cc1c(Cc2ccccc2NS(=O)(=O)C(F)(F)F)c(=O)on1CC1CCCCC1 [Compound 1-146] | 100 | 100 | 100 | 100 | 100 | 90 | 70 | 90 | 90 | 90 | 100 | 100 | 50 | 40 | 80 | 40 |
